According to ChEMBL document CHEMBL1201862, “PubChem BioAssay data set” (2004):
Calls of active or inactive are those of the source.

Tests used:
[1] = test system: HEK293; assay: cells; format: functional, cell-based; details: Homo sapiens
[2] = biological target: T1, Nuclear receptor subfamily 0 group B member 1 (Homo sapiens, UniProt P51843); assay: Luminescence-based cell-based high throughput dose response assay for inhibitors of the orphan nuclear receptor subfamily 0, group B, member 1 (DAX1; NR0B1). [Related pubchem assays (depositor defined):AID504766, AID504790]; format: functional
T1 sequence (P51843 whole entry): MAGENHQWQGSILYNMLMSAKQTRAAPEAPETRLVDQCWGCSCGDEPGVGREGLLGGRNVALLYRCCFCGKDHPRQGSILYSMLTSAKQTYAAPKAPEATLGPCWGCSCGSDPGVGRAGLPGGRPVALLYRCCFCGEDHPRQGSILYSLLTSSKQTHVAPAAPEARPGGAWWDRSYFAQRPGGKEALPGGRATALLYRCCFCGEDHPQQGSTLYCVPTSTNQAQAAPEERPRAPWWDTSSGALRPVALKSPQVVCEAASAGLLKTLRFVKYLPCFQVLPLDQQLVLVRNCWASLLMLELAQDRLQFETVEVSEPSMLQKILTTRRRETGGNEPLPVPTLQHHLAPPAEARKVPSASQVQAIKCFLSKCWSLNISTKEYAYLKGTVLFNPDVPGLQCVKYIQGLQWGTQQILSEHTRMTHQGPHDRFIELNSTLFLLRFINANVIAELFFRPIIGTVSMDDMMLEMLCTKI

[3] = biological target: Matrix metalloproteinase-14 (Homo sapiens, UniProt P50281); assay: Dose Response confirmation of uHTS hits for a small molecule inhibitors of MT1-MMP activation in a fluorescence assay set 2.; format: functional
[4] = Luminescence Cell-Based Dose Retest to Confirm Inhibitors of Cancer Stem Cells. [Related pubchem assays (depositor defined):AID2717, AID2721]; format: functional; details: Homo sapiens
[5] = viability loss of HMLE_sh_eGFP cells – cell-based, luminescence, counter-screen for HMLE_sh_ECad selective toxicity project, dose response (AID 463074); format: functional, Homo sapiens;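 note: HMLE human mammary epithelial cells expressing control shRNA against eGFP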
[6] = biological target: FAD-linked sulfhydryl oxidase ALR (Homo sapiens, UniProt P55789); assay: ALR-catalysed DTT oxidation blockers – biochemical, H2O2 detection, luminescence, cherry-pick, dose response (AID 493248)
[7] = biological target: Heat shock cognate 71 kDa protein (Homo sapiens, UniProt P11142); assay: In Vitro Hsc70 Dose Response Fluorescence Polarization Assay. [Related pubchem assays: 1072 ]
[8] = biological target: T2, Dual specificity protein phosphatase 6 (Rattus norvegicus, UniProt Q64346)
T2 sequence (Q64346 whole entry): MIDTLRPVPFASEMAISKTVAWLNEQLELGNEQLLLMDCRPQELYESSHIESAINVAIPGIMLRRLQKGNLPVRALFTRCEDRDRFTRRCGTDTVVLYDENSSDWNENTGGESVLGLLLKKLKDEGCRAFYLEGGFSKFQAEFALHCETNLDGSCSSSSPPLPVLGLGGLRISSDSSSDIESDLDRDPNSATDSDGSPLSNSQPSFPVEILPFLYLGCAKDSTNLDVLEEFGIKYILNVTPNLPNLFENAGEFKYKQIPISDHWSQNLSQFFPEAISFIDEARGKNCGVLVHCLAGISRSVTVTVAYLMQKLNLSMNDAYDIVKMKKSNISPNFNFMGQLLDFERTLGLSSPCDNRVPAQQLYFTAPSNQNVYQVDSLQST

[9] = biological target: T2, Dual specificity protein phosphatase 6; format: functional
[10] = biological target: T3, Tyrosine-protein phosphatase non-receptor type 7 (Homo sapiens, UniProt P35236); format: functional
T3 sequence (P35236 whole entry): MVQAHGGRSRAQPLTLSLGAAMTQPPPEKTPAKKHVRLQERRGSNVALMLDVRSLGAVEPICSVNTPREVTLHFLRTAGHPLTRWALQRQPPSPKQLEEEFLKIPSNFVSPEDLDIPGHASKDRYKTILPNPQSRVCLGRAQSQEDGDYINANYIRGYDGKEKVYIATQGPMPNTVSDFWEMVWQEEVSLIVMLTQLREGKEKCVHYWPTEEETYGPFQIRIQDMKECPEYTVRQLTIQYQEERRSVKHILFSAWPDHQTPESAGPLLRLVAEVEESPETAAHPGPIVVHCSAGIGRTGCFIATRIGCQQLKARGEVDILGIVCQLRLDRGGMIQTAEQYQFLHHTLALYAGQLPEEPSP

[11] = biological target: Heat shock 70 kDa protein 1A (Homo sapiens, UniProt P0DMV8); assay: inhibition of Hsp70 binding activity – biochemical, fluorescence polarization, SAR follow-up (AID 1072)
[12] = biological target: Glyceraldehyde-3-phosphate dehydrogenase (Homo sapiens, UniProt P04406)
[13] = test system: A-375; assay: proliferation inhibition in MITF-low A375 cells – cell-based, cherry-pick samples, set 2, counter-screen for MITF modulator project, dose response (AID 540335); format: functional; details: Homo sapiens
[14] = test system: A-375; assay: MITF: Counter assay: A375 proliferation Measured in Cell-Based System Using Plate Reader - 2084-03_Inhibitor_Dose_DryPowder_Activity. [Related pubchem assays (depositor defined):AID488944]; format: functional; details: Homo sapiens
[15] = biological target: Beta-2 adrenergic receptor (Homo sapiens, UniProt P07550); assay: ADRB2 activation measured by internalization – cell-based, FAP fluorogen, flow cytometry, cherry pick 1, dose response (AID 588763); format: functional
[16] = biological target: Phospholipase D1 (Homo sapiens, UniProt Q13393); assay: PLD1 purified enzyme concentration response. [Related pubchem assays (depositor defined):AID588854]; format: functional
[17] = biological target: T4, Phospholipase D2 (Homo sapiens, UniProt O14939); assay: PLD2 purified enzyme concentration response. [Related pubchem assays (depositor defined):AID588854]; format: functional
[18] = biological target: T4, Phospholipase D2; assay: cellular phospholipase D2 inhibition IC50 – cell-based, dose response (AID 602147); format: functional;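 note: cellular assay in HEK293 cells overexpressing GFP-tagged PLD2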
[19] = biological target: Dual specificity protein kinase CLK1 (Homo sapiens, UniProt P49759); assay: inhibition of human CLK1 activity – biochemical, cherry-picked samples, selectivity assay for Dyrk1A inhibitor project, dose response (AID 588811)
[20] = biological target: Dual specificity tyrosine-phosphorylation-regulated kinase 1A (Rattus norvegicus, UniProt Q63470); format: biochemical, Homo sapiens
[21] = viability loss in Vero cells – cytotoxicity control for Vif-APOBEC3G degradation inhibitor project, dose response (AID 1117358); format: functional; details: Vero
[22] = biological target: T5, Hexokinase-1 (Homo sapiens, UniProt P19367); assay: SAR analysis of small molecule inhibitors of hexokinase domain containing I (HKDC1) in the hexokinase 1 selectivity assay. [Related pubchem assays (depositor defined):AID493160, AID493190]; format: functional
T5 sequence (P19367 whole entry): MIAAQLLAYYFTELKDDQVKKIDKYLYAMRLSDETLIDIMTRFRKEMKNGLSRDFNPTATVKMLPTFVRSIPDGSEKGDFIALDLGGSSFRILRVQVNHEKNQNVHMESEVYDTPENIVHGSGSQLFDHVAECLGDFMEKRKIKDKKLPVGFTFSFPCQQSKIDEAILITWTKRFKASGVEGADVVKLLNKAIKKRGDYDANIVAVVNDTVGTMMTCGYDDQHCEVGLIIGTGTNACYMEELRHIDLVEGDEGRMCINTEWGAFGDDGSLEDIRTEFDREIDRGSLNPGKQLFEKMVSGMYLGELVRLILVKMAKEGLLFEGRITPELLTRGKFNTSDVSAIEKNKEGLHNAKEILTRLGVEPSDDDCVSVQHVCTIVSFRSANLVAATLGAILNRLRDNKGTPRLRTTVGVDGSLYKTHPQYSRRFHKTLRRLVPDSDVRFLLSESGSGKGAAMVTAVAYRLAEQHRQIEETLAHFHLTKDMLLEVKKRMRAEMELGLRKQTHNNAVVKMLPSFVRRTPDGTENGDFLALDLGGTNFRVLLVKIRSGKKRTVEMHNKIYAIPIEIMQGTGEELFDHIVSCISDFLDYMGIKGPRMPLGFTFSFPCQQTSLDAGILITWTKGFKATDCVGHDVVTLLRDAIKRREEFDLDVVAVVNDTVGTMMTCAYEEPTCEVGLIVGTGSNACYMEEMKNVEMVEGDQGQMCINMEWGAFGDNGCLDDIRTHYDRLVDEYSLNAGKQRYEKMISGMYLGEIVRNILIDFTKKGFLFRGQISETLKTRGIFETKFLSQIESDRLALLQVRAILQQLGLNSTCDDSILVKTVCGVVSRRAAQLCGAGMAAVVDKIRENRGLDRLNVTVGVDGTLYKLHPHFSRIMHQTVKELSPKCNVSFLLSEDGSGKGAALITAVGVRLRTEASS

[23] = biological target: T6, Hexokinase HKDC1 (Homo sapiens, UniProt Q2TB90); assay: SAR analysis of small molecule inhibitors of hexokinase domain containing I (HKDC1). [Related pubchem assays (depositor defined):AID493160, AID493190]; format: functional
T6 sequence (Q2TB90 whole entry): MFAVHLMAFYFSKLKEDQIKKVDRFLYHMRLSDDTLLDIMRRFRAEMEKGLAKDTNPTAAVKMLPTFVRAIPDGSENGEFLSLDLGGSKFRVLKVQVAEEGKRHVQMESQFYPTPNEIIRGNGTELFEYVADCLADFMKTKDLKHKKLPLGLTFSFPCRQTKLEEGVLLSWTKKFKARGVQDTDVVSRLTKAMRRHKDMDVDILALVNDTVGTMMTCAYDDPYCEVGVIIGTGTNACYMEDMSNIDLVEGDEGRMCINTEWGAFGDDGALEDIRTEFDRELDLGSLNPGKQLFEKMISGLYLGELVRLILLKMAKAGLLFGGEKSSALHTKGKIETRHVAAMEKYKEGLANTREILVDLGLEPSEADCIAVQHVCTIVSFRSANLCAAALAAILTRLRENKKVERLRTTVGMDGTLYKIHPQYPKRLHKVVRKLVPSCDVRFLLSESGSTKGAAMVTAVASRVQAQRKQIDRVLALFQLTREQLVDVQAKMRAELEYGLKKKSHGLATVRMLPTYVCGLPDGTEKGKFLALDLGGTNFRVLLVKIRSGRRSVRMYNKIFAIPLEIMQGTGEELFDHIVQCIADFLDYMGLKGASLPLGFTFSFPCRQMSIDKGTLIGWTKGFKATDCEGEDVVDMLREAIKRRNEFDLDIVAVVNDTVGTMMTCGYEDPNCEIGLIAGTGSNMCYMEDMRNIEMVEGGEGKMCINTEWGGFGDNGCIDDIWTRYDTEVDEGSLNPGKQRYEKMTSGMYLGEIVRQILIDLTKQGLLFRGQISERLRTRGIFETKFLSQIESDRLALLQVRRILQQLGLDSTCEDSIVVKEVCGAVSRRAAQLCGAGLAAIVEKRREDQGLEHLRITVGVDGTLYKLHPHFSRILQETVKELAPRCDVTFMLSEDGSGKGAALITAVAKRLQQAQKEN

[24] = test system: Jurkat; assay: SAR Analysis of small molecule inhibitors of […] specific antigen receptor-induced NF-kB activation in a Jurkat cell line using a luminescence assay - Set 3. [Related pubchem assays (depositor defined):AID435022, AID435025, AID465]; format: functional, cell-based; details: Homo sapiens
[25] = test system: HEK293; assay: SAR Analysis of small molecule inhibitors of B-cell specific antigen receptor-induced NF-kB activation in a HEK-293T cell line using a luminescence assay - Set 2. [Related pubchem assays (depositor defined):AID435022, AID435025, AID489021]; format: functional, cell-based; details: Homo sapiens
[26] = test system: HEK293; assay: HEK293T cell viability loss, resazurin readout – resazurin fluorescence, cytotoxicity control for NF-kB activator project, SAR follow-up (AID 493251); format: functional, cell-based; details: Homo sapiens

T4 sequence (O14939 whole entry): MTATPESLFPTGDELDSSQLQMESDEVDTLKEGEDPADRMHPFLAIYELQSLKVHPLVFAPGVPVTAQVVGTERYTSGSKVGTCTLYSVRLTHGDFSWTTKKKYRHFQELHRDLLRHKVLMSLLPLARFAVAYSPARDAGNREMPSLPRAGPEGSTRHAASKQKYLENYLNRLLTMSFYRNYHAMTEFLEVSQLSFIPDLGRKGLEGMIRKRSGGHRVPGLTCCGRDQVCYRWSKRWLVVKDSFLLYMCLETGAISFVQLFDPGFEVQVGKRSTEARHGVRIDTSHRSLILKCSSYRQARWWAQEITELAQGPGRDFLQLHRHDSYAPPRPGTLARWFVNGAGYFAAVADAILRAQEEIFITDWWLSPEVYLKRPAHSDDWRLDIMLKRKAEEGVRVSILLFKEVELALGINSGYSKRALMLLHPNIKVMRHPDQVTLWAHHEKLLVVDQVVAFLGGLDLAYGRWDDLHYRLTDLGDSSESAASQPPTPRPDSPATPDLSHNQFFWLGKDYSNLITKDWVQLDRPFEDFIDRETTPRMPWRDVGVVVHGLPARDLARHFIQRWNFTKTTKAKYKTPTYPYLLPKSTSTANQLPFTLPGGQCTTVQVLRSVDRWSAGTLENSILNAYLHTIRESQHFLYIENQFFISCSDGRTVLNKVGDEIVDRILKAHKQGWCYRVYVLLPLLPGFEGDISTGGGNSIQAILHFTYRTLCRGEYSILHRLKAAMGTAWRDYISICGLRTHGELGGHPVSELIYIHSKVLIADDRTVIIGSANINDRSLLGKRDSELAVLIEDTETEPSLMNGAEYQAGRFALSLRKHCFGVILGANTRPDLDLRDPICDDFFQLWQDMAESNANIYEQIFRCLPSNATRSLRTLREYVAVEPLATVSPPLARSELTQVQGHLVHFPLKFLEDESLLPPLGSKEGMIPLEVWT
Sequence of Heat shock cognate 71 kDa protein (P11142 whole entry): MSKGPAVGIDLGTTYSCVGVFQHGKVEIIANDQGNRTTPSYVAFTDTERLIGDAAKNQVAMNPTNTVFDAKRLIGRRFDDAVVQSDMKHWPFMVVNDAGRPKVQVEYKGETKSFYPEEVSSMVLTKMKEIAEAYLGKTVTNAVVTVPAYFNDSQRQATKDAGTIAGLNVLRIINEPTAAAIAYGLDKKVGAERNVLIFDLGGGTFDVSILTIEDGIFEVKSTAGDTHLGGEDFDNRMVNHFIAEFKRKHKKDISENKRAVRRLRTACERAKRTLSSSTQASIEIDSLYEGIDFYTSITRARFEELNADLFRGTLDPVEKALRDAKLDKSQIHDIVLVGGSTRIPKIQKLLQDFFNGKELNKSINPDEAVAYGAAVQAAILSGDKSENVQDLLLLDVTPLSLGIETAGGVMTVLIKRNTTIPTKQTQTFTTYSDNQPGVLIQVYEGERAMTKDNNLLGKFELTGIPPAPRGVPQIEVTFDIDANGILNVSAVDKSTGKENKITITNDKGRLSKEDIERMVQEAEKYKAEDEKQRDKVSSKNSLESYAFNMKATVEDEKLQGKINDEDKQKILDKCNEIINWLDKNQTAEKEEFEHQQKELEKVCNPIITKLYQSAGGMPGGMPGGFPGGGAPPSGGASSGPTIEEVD
Sequence of Heat shock 70 kDa protein 1A (P0DMV8 whole entry): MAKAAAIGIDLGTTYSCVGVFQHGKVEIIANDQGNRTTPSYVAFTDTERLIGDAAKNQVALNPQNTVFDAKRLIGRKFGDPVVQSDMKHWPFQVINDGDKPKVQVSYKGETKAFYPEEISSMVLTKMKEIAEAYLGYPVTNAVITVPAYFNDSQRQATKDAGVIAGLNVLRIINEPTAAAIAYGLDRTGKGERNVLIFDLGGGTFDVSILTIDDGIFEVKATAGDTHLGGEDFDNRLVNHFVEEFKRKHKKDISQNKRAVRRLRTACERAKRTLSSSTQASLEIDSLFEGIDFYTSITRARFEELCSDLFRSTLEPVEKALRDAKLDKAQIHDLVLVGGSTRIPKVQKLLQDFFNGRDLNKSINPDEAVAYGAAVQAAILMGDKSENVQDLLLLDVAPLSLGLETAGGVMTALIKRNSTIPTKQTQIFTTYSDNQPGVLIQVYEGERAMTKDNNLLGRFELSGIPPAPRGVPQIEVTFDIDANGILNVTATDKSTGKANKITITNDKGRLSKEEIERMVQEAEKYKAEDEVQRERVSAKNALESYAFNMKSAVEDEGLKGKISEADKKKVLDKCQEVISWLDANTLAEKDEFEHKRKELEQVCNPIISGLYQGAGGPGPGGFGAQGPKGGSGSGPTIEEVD
Sequence of FAD-linked sulfhydryl oxidase ALR (P55789 whole entry): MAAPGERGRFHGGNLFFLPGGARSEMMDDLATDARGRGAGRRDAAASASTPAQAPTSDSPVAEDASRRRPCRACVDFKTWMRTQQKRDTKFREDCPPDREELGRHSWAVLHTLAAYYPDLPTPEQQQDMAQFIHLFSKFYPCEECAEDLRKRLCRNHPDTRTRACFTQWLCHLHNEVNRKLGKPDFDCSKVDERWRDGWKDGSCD
Sequence of Phospholipase D1 (Q13393 whole entry): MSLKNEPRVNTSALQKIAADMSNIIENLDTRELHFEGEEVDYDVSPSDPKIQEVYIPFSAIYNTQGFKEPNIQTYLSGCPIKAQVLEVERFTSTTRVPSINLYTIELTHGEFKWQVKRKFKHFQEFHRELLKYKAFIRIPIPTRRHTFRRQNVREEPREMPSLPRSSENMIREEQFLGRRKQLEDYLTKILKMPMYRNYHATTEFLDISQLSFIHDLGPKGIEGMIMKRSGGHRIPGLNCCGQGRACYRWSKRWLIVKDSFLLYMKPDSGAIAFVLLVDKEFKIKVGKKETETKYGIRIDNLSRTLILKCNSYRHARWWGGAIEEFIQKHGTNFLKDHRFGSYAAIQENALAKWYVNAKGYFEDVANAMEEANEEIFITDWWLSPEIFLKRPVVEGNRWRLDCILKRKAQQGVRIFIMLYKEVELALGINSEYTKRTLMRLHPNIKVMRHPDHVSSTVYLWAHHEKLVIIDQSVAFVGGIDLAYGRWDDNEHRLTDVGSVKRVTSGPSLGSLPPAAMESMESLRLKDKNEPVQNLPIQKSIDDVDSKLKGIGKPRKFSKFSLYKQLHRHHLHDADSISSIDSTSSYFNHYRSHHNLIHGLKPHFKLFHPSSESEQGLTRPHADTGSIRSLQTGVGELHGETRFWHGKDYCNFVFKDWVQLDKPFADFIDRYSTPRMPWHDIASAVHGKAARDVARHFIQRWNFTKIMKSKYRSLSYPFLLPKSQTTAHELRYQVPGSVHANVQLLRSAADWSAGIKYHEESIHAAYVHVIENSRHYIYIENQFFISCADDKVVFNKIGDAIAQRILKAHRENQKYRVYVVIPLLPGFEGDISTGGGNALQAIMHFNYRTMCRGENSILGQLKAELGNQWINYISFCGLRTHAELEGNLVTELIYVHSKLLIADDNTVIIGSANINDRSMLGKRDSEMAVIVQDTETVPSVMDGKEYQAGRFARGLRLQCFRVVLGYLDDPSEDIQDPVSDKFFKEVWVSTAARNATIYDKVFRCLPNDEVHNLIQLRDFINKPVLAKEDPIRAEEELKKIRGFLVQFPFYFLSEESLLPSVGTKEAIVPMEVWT
Sequence of Dual specificity protein kinase CLK1 (P49759 whole entry): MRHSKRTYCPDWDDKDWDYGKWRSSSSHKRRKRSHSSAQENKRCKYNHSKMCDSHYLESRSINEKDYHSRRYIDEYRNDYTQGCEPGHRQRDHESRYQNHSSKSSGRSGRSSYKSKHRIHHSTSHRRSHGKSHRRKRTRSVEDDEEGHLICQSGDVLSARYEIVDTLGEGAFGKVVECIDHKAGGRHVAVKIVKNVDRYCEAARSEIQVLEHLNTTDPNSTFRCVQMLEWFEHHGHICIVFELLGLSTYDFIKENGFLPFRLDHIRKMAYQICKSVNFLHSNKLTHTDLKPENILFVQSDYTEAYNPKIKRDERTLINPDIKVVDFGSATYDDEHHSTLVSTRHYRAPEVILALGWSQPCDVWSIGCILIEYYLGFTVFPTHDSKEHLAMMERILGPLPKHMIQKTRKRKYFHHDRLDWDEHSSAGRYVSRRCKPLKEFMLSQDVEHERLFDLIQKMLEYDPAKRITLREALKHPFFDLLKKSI
Sequence of Beta-2 adrenergic receptor (P07550 whole entry): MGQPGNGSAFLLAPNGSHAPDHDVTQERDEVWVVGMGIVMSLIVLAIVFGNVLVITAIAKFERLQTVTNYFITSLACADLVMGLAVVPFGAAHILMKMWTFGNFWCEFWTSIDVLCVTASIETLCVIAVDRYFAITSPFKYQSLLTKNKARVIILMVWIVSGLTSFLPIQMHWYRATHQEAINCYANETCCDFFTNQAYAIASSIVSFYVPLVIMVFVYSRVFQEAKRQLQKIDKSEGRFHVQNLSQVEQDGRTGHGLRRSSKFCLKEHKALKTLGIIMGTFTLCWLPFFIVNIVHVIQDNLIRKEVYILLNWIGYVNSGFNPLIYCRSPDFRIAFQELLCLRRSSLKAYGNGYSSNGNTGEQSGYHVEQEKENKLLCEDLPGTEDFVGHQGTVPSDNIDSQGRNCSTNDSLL
Sequence of Glyceraldehyde-3-phosphate dehydrogenase (P04406 whole entry): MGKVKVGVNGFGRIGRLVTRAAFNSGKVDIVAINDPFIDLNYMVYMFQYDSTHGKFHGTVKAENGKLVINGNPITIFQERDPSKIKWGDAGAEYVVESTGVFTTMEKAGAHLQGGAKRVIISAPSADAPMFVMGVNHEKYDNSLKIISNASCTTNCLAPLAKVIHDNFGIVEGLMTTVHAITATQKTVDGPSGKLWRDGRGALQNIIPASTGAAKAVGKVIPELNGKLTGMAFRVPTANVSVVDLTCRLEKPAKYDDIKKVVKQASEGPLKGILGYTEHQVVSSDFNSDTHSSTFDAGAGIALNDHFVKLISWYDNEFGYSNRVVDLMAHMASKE

Structure (SMILES): O=C(CSc1nnc(NC2CCCCC2)s1)Nc1ccc2c(c1)C(=O)c1ccccc1C2=O
- IC50 [1]: > 67.5 µM (inactive)
- IC50 [2]: > 67.5 µM (inactive)

Structure (SMILES): O=C(NNc1c2ccccc2nc2ccccc12)c1ccccc1O
- IC50 [3]: 60.8 µM (inactive)
- AC50 [4]: 18.3 µM (active)
- AC50 [5]: 22.8 µM (active)
- AC50 [6]: 0.08 µM (active)

Structure (SMILES): Cc1cc(I)cc2c1NC(C(=O)O)C1CC=CC21 (stereo unspecified)
- IC50 [7]: > 100 µM (not active)
- IC50 [8]: > 100 µM (inactive)
- IC50 [9]: > 100 µM (inactive)
- IC50 [10]: > 100 µM (not active)
- IC50 [11]: > 100 µM (not active)
- IC50 [12]: > 100 µM (not active)

Structure (SMILES): CC(=O)c1ccc(N/C=C/C(=O)c2ccc(Br)cc2)cc1
- AC50 [13]: > 35 µM (active)
- AC50 [14]: > 35 µM (active)

Structure (SMILES): O=C(CCCCCn1c(=O)[nH]c2ccsc2c1=O)NCc1ccc2c(c1)OCO2
- EC50 [15]: 0.0393 µM (active)

Structure (SMILES): O=C(NCCN1CCC2(CC1)C(=O)NCN2c1ccc(F)cc1)c1cc2cc(F)ccc2[nH]1
- IC50 [16]: 5.5 µM (active)
- IC50 [17]: 0.066 µM (active)
- IC50 [18]: 0.027 µM (active)

Structure (SMILES): O=C(Nc1nc2ccc(Cl)cc2s1)C1CCCO1 (stereo unspecified)
- AC50 [19]: 2.03 µM (active)
- AC50 [20]: 2.01 µM (active)
- CC50 [21]: > 40 µM (active)

Structure (SMILES): O=c1c2ccccc2nc(/C=C/c2ccccc2)n1-c1ccccc1
- IC50 [22]: > 80 µM (inactive)
- IC50 [23]: > 80 µM (inactive)

Structure (SMILES): CCOc1ccc(-c2nc(CSCC(=O)NCc3ccccc3)c(C)o2)cc1
- IC50 [24]: > 80 µM (inactive)
- IC50 [25]: 21.6 µM (inactive)
- IC50 [26]: 49.3 µM (inactive)
